Calls of active or inactive are those of the source. The calls are words filed in the database; no cut-off is given here.

Test [1] has as its system NCI-H460. Kind of test: Induction of apoptosis in human NCI-H460 cells assessed as early apoptotic cells at 2.5 uM for 24 hrs by annexin V-PI staining based flow cytometric analysis (reference value: 0.2%). Type of test: functional.
Test [2] deals with NCI-H1373. Kind of test: Induction of cell cycle arrest in human NCI-H1373 cells assessed as accumulation of cells at G2/M phase at 0.1 uM for 24 hrs by Click-iT EdU Alexa Fluor 647 flow cytometric assay kit analysis (reference value: 13%). Format: functional.
Test [3] has as its system NCI-H1373. Kind of test: Induction of TRAIL dependent apoptosis in human NCI-H1373 cells assessed as necrotic cells at 1 uM by annexin V-PI staining based flow cytometric analysis (reference value: 3.6%). Type of test: functional.
The test system of test [4] is NCI-H1373. As to the kind of experiment: Induction of cell cycle arrest in human NCI-H1373 cells assessed as accumulation of cells at G0/G1 phase at 1 uM for 24 hrs by Click-iT EdU Alexa Fluor 647 flow cytometric assay kit analysis (reference value: 40%). Type of test: functional.
Test [5] concerns NCI-H2030. As to the kind of experiment: Antiproliferative activity against human NCI-H2030 cells at 500 to 2500 nM in presence of TNF by cell titre glo assay. As to conditions: dose 500-2500 nM. Type of test: functional, cell-based.
Test [6] has as its system NCI-H1373. Kind of test: Induction of cell cycle arrest in human NCI-H1373 cells assessed as accumulation of cells at G0/G1 phase at 0.1 uM for 24 hrs by Click-iT EdU Alexa Fluor 647 flow cytometric assay kit analysis (reference value: 40%). Format: functional.
For test [7], the system named is DV-90. Kind of test: Induction of cell cycle arrest in human DV-90 cells assessed as accumulation of cells at G0/G1 phase at 0.25 uM for 24 hrs by Click-iT EdU Alexa Fluor 647 flow cytometric assay kit analysis (reference value: 44%). Format: functional.
Test [8] deals with DV-90. As to the kind of experiment: Induction of cell cycle arrest in human DV-90 cells assessed as accumulation of cells at G0/G1 phase at 1 uM for 24 hrs by Click-iT EdU Alexa Fluor 647 flow cytometric assay kit analysis (reference value: 44%). Type of test: functional.
For test [9], the system named is NCI-H1373. Kind of test: Induction of apoptosis in human NCI-H1373 cells assessed as necrotic cells at 0.5 uM for 24 hrs by annexin V-PI staining based flow cytometric analysis (reference value: 5.5%). Type of test: functional.
Test [10] deals with DV-90. As to the kind of experiment: Induction of apoptosis in human DV-90 cells assessed as viable cells at 0.5 uM for 24 hrs by annexin V-PI staining based flow cytometric analysis (reference value: 81.5%). Type of test: functional. The note with it: read-out: Activity.
Test [11] has as its system A549. Kind of test: Induction of apoptosis in human A549 cells assessed as necrotic cells at 1 uM in presence of cisplatin by annexin V-PI based flow cytometric analysis (reference value: 1.6%). Type of test: functional.
The test system of test [12] is SK-LU-1. Kind of test: Downregulation of c-MYC mRNA expression level in human SK-LU-1 cells at 0.1 to 1 uM for 24 hrs by qRT-PCR analysis. Format: functional, cell-based. As to conditions: dose 0.1-1 µM.
The test system of test [13] is NCI-H1373. As to the kind of experiment: Induction of cell cycle arrest in human NCI-H1373 cells assessed as accumulation of cells at S phase at 0.1 uM for 24 hrs by Click-iT EdU Alexa Fluor 647 flow cytometric assay kit analysis (reference value: 45%). Format: functional.
Test [14] concerns SK-LU-1. As to the kind of experiment: Downregulation of FLIP mRNA expression level in human SK-LU-1 cells at 0.1 to 1 uM for 24 hrs by qRT-PCR analysis. Format: functional, cell-based. The note with it: dose 0.1-1 µM.
The test system of test [15] is NCI-H2347. As to the kind of experiment: Downregulation of XIAP mRNA expression level in human NCI-H2347 cells at 0.1 to 1 uM for 24 hrs by qRT-PCR analysis. Format: functional, cell-based. As to conditions: dose 0.1-1 µM.
Test [16] has as its system DV-90. As to the kind of experiment: Downregulation of FLIP gene in human DV-90 cells after 24 hrs by microarray profiling analysis. Type of test: functional, cell-based.
For test [17], the system named is NCI-H1373. As to the kind of experiment: Induction of cell cycle arrest in human NCI-H1373 cells assessed as accumulation of cells at G2/M phase at 1 uM for 24 hrs by Click-iT EdU Alexa Fluor 647 flow cytometric assay kit analysis (reference value: 13%). Format: functional.
The test system of test [18] is DV-90. As to the kind of experiment: Downregulation of XIAP mRNA expression level in human DV-90 cells at 0.1 to 1 uM for 24 hrs by qRT-PCR analysis. Type of test: functional, cell-based. The note with it: dose 0.1-1 µM.
For test [19], the system named is NCI-H441. Kind of test: Downregulation of c-MYC mRNA expression level in human NCI-H441 cells at 0.1 to 1 uM for 24 hrs by qRT-PCR analysis. As to conditions: dose 0.1-1 µM. Format: functional, cell-based.
Test [20] relates to NCI-H1373. Kind of test: Induction of cell cycle arrest in human NCI-H1373 cells assessed as accumulation of cells at S phase at 1 uM for 24 hrs by DAPI staining analysis (reference value: 40%). Format: functional.
Test [21] relates to DV-90. As to the kind of experiment: Downregulation of XIAP protein expression level in human DV-90 cells at 1 uM for 24 hrs by […] analysis. Format: functional, cell-based.
The subject of test [22] is NCI-H1373. Kind of test: Antitumor activity against human NCI-H1373 cells xenografted in SCID mouse assessed as tumor weight ratio to control at 50 mg/kg, ip measured on after 15 days relative to control. Format: functional. The note with it: time 15 day.
For test [23], the system named is SK-LU-1. Kind of test: Downregulation of XIAP mRNA expression level in human SK-LU-1 cells at 0.1 to 1 uM for 24 hrs by qRT-PCR analysis. Format: functional, cell-based. As to conditions: dose 0.1-1 µM.
Test [24] has as its system NCI-H2030. Kind of test: Downregulation of XIAP protein expression level in human NCI-H2030 cells at 1 uM for 24 hrs by […] analysis. Type of test: functional, cell-based.
The test system of test [25] is A549. As to the kind of experiment: Induction of apoptosis in human A549 cells assessed as necrotic cells at 1 uM by annexin V-PI based flow cytometric analysis (reference value: 1.6%). Format: functional.
For test [26], the system named is A549. Kind of test: Induction of apoptosis in human A549 cells assessed as necrotic cells at 2.5 uM for 24 hrs by annexin V-PI staining based flow cytometric analysis (reference value: 0.9%). Type of test: functional.
Test [27] deals with NCI-H460. As to the kind of experiment: Induction of apoptosis in human NCI-H460 cells assessed as viable cells at 2.5 uM for 24 hrs by annexin V-PI staining based flow cytometric analysis (reference value: 92.8%). The note with it: read-out: Activity. Format: functional.
The subject of test [28] is DV-90. Kind of test: Induction of cell cycle arrest in human DV-90 cells assessed as accumulation of cells at G0/G1 phase at 0.25 uM for 24 hrs by Click-iT EdU Alexa Fluor 647 flow cytometric assay kit analysis (reference value: 47%). Format: functional.
Test [29] deals with NCI-H1373. Kind of test: Induction of apoptosis in human NCI-H1373 cells assessed as late apoptotic cells at 0.5 uM for 24 hrs by annexin V-PI staining based flow cytometric analysis (reference value: 22.3%). Format: functional.
The subject of test [30] is NCI-H1373. Kind of test: Induction of apoptosis in human NCI-H1373 cells assessed as early apoptotic cells at 0.5 uM for 24 hrs by annexin V-PI staining based flow cytometric analysis (reference value: 1.7%). Type of test: functional.
The test system of test [31] is A549. As to the kind of experiment: Induction of apoptosis in human A549 cells assessed as late apoptotic cells at 2.5 uM for 24 hrs by annexin V-PI staining based flow cytometric analysis (reference value: 1.2%). Format: functional.
The test system of test [32] is DV-90. As to the kind of experiment: Induction of cell cycle arrest in human DV-90 cells assessed as accumulation of cells at G0/G1 phase at 0.1 uM for 24 hrs by Click-iT EdU Alexa Fluor 647 flow cytometric assay kit analysis (reference value: 45%). Format: functional.
The subject of test [33] is DV-90. Kind of test: Induction of cell cycle arrest in human DV-90 cells assessed as accumulation of cells at G0/G1 phase at 1 uM for 24 hrs by Click-iT EdU Alexa Fluor 647 flow cytometric assay kit analysis (reference value: 45%). Format: functional.

Consider `Cc1sc2c(c1C)C(c1ccc(Cl)cc1)=N[C@@H](CC(=O)OC(C)(C)C)c1nnc(C)n1-2`, for which the Activity is reported as 0.4% in test [1]; 17% in test [2]; 19.1% in test [3]; 68% in test [4]; 44% in [6]; 45% in [7]. Also, the Activity is 56% in test [8]; 13% in test [9]; 10.3% in test [11]; 36% in test [13]; 21% in test [17]; 7% in test [20]. For the same compound, the Activity in test [25] is 0.6%. The outcome in [5], in [12], in test [14], in [15], in [16] and in [18] was Active. For the same compound, the outcome in test [19], in test [21], in [23] and in [24] was Active. Besides, the viability at 0.5 µM in [10] turned out to be 61.3%. The T/C in test [22] stood at 32%.

Regarding `Cc1sc2c(c1C)C(c1ccc(Cl)cc1)=N[C@@H](CC(=O)Nc1ccc(O)cc1)c1nnc(C)n1-2` [BIRABRESIB], the Activity in test [26] is listed as 1.1%; in test [28], 52%; in test [29], 20.5%; in test [30], 2.6%; in test [31] it was 1.5%. The viability at 2.5 µM in test [27] turned out to be 90.4%.

With `CCNC(=O)C[C@@H]1N=C(c2ccc(Cl)cc2)c2cc(OC)ccc2-n2c(C)nnc21` [MOLIBRESIB], the Activity in test [32] was 46%; in test [33], 50%.
